In brackets after ≈: the same amount, converted by molar mass.
What was measured:
Type in all cases: physicochemical
[1] = solid-form stability (thermodynamic stability, form conversion on storage, isolation and drying)
From the text: (§1) In some embodiments, removal of the solvent molecule(s) from selpercatinib in solvated form can provide for selpercatinib Form A.
As noted above, selpercatinib can form solvates; and it can also form metastable solid forms, both of which are generally not stable on drying. […] The solvates and metastable forms usually revert to Form A during isolation and/or drying, although films or amorphous material occasionally form. The chloroform and 1,4-dioxane solvates were stable upon isolation/drying. Thus, one strategy for preparing selpercatinib Form A is to convert amorphous selpercatinib and/or selpercatinib Form B into a solvate and then desolvating the solvate, to afford Form A.
In one preferred embodiment, the Form A material is washed with MTBE or heptane and then dried under vacuum at a temperature of about 40 to about 45° C.
The formation of the solvate appears to remove any dependence on, or effect from, the seed crystal form.

[2] = hygroscopicity of the anhydrous polymorphs; settings: Form A compared with Form B
From the text: as §1

[3] = solubility of crystalline forms in organic solvents
From the text: Forms A and B have similar solubilities.

SMILES | thermodynamic stability ([1]; Form A compared with Form B) | interconversion of polymorphs ([1]; typical storage or preparative conditions) | form conversion on drying of wet cake ([1]; wet cake dried at 45° C., ambient pressure, over several days) | hygroscopicity [2] | solubility in many organic solvents ([3]; 25° C., methyl ethyl ketone (MEK), acetone, many alcohol based solvents) | solubility ([3]; organic solvents: dichloromethane, dimethylsulfoxide, organic solvent or mixture, moderate solubility, 25° C., DCM, DMSO, THF) [mg/mL] | solubility in anisole ([3]; anisole)
COc1ccc(CN2C3CC2CN(c2ccc(-c4cc(OCC(C)(C)O)cn5ncc(C#N)c45)cn2)C3)cn1 [Form A, 6-(2-hydroxy-2-methylpropoxy)-4-(6-(6-((6-methoxypyridin-3-yl)methyl)-3,6-diazabicyclo[3.1.1]heptan-3-yl)pyridin-3-yl)pyrazolo[1,5-a]pyridine-3-carbonitrile] | thermodynamically less stable | do not readily inter-convert | slowly converted the Form A to Form B | slightly more hygroscopic | poor | 3 to 30 (≈ 5.71 to 57.1 mM) | 
COc1ccc(CN2C3CC2CN(c2ccc(-c4cc(OCC(C)(C)O)cn5ncc(C#N)c45)cn2)C3)cn1 [Form B, 6-(2-hydroxy-2-methylpropoxy)-4-(6-(6-((6-methoxypyridin-3-yl)methyl)-3,6-diazabicyclo[3.1.1]heptan-3-yl)pyridin-3-yl)pyrazolo[1,5-a]pyridine-3-carbonitrile] |  |  |  |  |  |  | almost no solubility
